From ChEMBL document CHEMBL1201862, “PubChem BioAssay data set” (2004)
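Interpolation was linear, between the two tested concentrations surrounding the appropriate level; five concentrations were tested over 48 hours in 96-well plates. GI50 is the concentration that inhibits growth by half.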 Calls of active or inactive are those of the source. Cut-off read from the data, not from the text of the source: active = GI50 up to about 1.1 µM and inactive = higher.

Legend:
Test in all cases: inhibition of tumour cell growth, NCI panel, 48 h
ACHN = system: ACHN
BT-549 = system: BT-549
CCRF-CEM = system: CCRF-CEM
DLD-1 = system: DLD-1
DMS-114 = system: DMS-114
DMS-273 = system: DMS-273
EKVX = system: EKVX
HCC 2998 = system: HCC 2998
HCT-116 = system: HCT-116
HL-60 = system: HL-60
HOP-18 = system: HOP-18
HOP-62 = system: HOP-62
HOP-92 = system: HOP-92
HT-29 = system: HT-29
Hs-578T = system: Hs-578T
IGROV-1 = system: IGROV-1
KM-20L2 = system: KM-20L2
KM12 = system: KM12
LOX IMVI = system: LOX IMVI
M19-MEL = system: M19-MEL
MCF7 = system: MCF7
Malme-3M = system: Malme-3M
NCI-H226 = system: NCI-H226
NCI-H23 = system: NCI-H23
NCI-H460 = system: NCI-H460
NCI-H522 = system: NCI-H522
NCI/ADR-RES = system: NCI/ADR-RES
OVCAR-3 = system: OVCAR-3
OVCAR-4 = system: OVCAR-4
OVCAR-5 = system: OVCAR-5
OVCAR-8 = system: OVCAR-8
PC-3 = system: PC-3
RXF 393 = system: RXF 393
SF-268 = system: SF-268
SF-295 = system: SF-295
SF-539 = system: SF-539
SK-MEL-28 = system: SK-MEL-28
SK-MEL-2 = system: SK-MEL-2
SK-MEL-5 = system: SK-MEL-5
SK-OV-3 = system: SK-OV-3
SN12C = system: SN12C
SNB-19 = system: SNB-19
SNB-75 = system: SNB-75
SNB-78 = system: SNB-78
SW-620 = system: SW-620
U-251 = system: U-251
UACC-257 = system: UACC-257
UACC-62 = system: UACC-62
UO-31 = system: UO-31

Q: Which GI50 (ACHN) does the source give for `COc1ccc2[nH]c3c(C)c4cc[n+](C)cc4c(C)c3c2c1` here?
A: 7.24 µM (inactive)

Q: What about the GI50 (BT-549) of the same compound?
A: 1.57 µM (inactive)

Q: And the GI50 (CCRF-CEM)?
A: 1.14 µM (inactive)

Q: And the GI50 (DLD-1)?
A: 1.06 µM (active)

Q: What about the GI50 (DMS-114) of the same compound?
A: 0.219 µM (active)

Q: What about the GI50 (DMS-273) of the same compound?
A: 0.838 µM (active)

Q: What about the GI50 (EKVX) of the same compound?
A: 0.738 µM (active)

Q: And the GI50 (HCC 2998)?
A: 1.92 µM (inactive)

Q: What about the GI50 (HCT-116) of the same compound?
A: 1.39 µM (inactive)

Q: What about the GI50 (HL-60) of the same compound?
A: 14.9 µM (inactive)

Q: And the GI50 (HOP-18)?
A: 3.95 µM (inactive)

Q: What about the GI50 (HOP-62) of the same compound?
A: 0.358 µM (active)

Q: What about the GI50 (HOP-92) of the same compound?
A: 2.27 µM (inactive)

Q: And the GI50 (HT-29)?
A: 3.23 µM (inactive)

Q: What about the GI50 (Hs-578T) of the same compound?
A: 0.125 µM (active)

Q: And the GI50 (IGROV-1)?
A: 1.96 µM (inactive)

Q: What about the GI50 (KM-20L2) of the same compound?
A: 3.3 µM (inactive)

Q: What about the GI50 (KM12) of the same compound?
A: 0.964 µM (active)

Q: And the GI50 (LOX IMVI)?
A: 6.21 µM (inactive)

Q: And the GI50 (M19-MEL)?
A: 0.661 µM (active)

Q: What about the GI50 (MCF7) of the same compound?
A: 2.16 µM (inactive)

Q: And the GI50 (Malme-3M)?
A: 0.733 µM (active)

Q: And the GI50 (NCI-H226)?
A: 0.232 µM (active)

Q: What about the GI50 (NCI-H23) of the same compound?
A: 0.521 µM (active)

Q: What about the GI50 (NCI-H460) of the same compound?
A: 1.26 µM (inactive)

Q: What about the GI50 (NCI-H522) of the same compound?
A: 0.548 µM (active)

Q: And the GI50 (NCI/ADR-RES)?
A: 19.3 µM (inactive)

Q: And the GI50 (OVCAR-3)?
A: 2.82 µM (inactive)

Q: And the GI50 (OVCAR-4)?
A: 1.91 µM (inactive)

Q: And the GI50 (OVCAR-5)?
A: 6.67 µM (inactive)

Q: And the GI50 (OVCAR-8)?
A: 0.169 µM (active)

Q: What about the GI50 (PC-3) of the same compound?
A: 4.55 µM (inactive)

Q: What about the GI50 (RXF 393) of the same compound?
A: 0.798 µM (active)

Q: What about the GI50 (SF-268) of the same compound?
A: 0.148 µM (active)

Q: And the GI50 (SF-295)?
A: 0.173 µM (active)

Q: What about the GI50 (SF-539) of the same compound?
A: 0.24 µM (active)

Q: And the GI50 (SK-MEL-28)?
A: 1.32 µM (inactive)

Q: What about the GI50 (SK-MEL-2) of the same compound?
A: 2.87 µM (inactive)

Q: What about the GI50 (SK-MEL-5) of the same compound?
A: 1.18 µM (inactive)

Q: What about the GI50 (SK-OV-3) of the same compound?
A: 7.74 µM (inactive)

Q: What about the GI50 (SN12C) of the same compound?
A: 0.0834 µM (active)

Q: What about the GI50 (SNB-19) of the same compound?
A: 0.16 µM (active)

Q: What about the GI50 (SNB-75) of the same compound?
A: 0.121 µM (active)

Q: What about the GI50 (SNB-78) of the same compound?
A: 0.406 µM (active)

Q: What about the GI50 (SW-620) of the same compound?
A: 0.587 µM (active)

Q: And the GI50 (U-251)?
A: 0.105 µM (active)

Q: And the GI50 (UACC-257)?
A: 8.41 µM (inactive)

Q: What about the GI50 (UACC-62) of the same compound?
A: 2.16 µM (inactive)

Q: And the GI50 (UO-31)?
A: 38.5 µM (inactive)
